Reference: patent publication US20250049705A1, “PHARMACEUTICAL COMPOSITION COMPRISING TIGECYCLINE” (ZAMBON S.p.A., priority 2021, published 2025)

Columns and labels:
[1] = test system: Mycobacterium abscessus; test: Anti-mycobacterial activity in infected THP-1 macrophages (CFU of cell lysates); assay type: cell-based
Procedure: Modification of the Dulbecco Eagle medium (Cellgro 15-017-cv) supplemented with: • Heat-inactivated fetal calf serum (Atlas Biologicals, Fort Collins, CO, F-0500-A) (10%) • LCM (10%)
Medium conditioned by L929: L-929 (CCL-1) (ATCC) cells secrete the macrophage colony-stimulating factor (M-CSF), the cytokine that differentiates bone marrow macrophages/monocyte progenitors into a homogeneous population of mature macrophages. They are seeded at 4.7×10^5 cells in 55 ml of DMEM+10% of fetal calf serum in a ball of 75 cm2. Cells are left to grow for 3 days and then the supernatant is collected and filtered through a 0.45 μm filter, aliquoted and frozen at −20° C.
The cell-free filtrate is used in DMEM media. • L-glutamine (Sigma G-7513) (2 mM) • HEPES buffer (Sigma H-0887) (10 mM) Antibiotic/antimycotic (Sigma A-9909) (1×) • non-essential amino acids MEM (Sigma M-7145) (1×) • 2-mercaptoethanol (Sigma M-6250) (50 nM)
THP-1 cells were expanded for 2 weeks.
Complete DMEM media free of antibiotic/antimycotic were not changed during the 3-day test.
On day 0, the media were removed from the cells and replaced with 0.2 mL of antibiotic/antimycotic-free DMEM containing Mycobacterium abscessus at a ratio of 10 bacteria per macrophage.
The tissue culture plates were placed inside closed Ziploc bags and transported to the incubator. Once inside the incubator, the bags were opened. The cells were incubated with the bacteria for 2 hours.
After the infection, the extracellular bacteria were removed by washing each well once with PBS. Then 2 mL of complete DMEM medium free of antibiotics/antimycotics and various drug concentrations were added.
Each drug concentration was tested in triplicate. Culture plates were incubated with antibiotics at 37° C.+5% CO2 for 3 days.

[2] = Storage of a solution of tigecycline (degradation in aqueous solution); assay type: physicochemical; settings: degradation by oxidation and epimerization; 24 hours at 5° C., 25° C. and 40° C.

## CN(C)c1cc(NC(=O)CNC(C)(C)C)c(O)c2c1C[C@H]1C[C@H]3[C@H](N(C)C)C(O)=C(C(N)=O)C(=O)[C@@]3(O)C(O)=C1C2=O [Pure Tigecycline, tigecycline]
[1]; pure tigecycline 1 μg/ml
  Day 1 CFU: 287 CFU
  Day 2 CFU: 2067 CFU
  Day 3 CFU: 2667 CFU
[1]; pure tigecycline 2 μg/ml
  Day 1 CFU: 263 CFU
  Day 2 CFU: 203 CFU
  Day 3 CFU: 1743 CFU
[1]; pure tigecycline 4 μg/ml
  Day 1 CFU: 427 CFU
  Day 2 CFU: 123 CFU
  Day 3 CFU: 267 CFU
[1]; pure tigecycline 8 μg/ml
  Day 1 CFU: 303 CFU
  Day 2 CFU: 203 CFU
  Day 3 CFU: 220 CFU
[1]; pure tigecycline 16 μg/ml
  Day 1 CFU: 333 CFU
  Day 2 CFU: 203 CFU
  Day 3 CFU: 153 CFU
[1]; pure tigecycline 24 μg/ml
  Day 1 CFU: 287 CFU
  Day 2 CFU: 90 CFU
  Day 3 CFU: 143 CFU
[2]
  stability in aqueous solution: extremely unstable
